Tests used:
[1] = system: antibody-forming cells (AFC) in the spleen; assay: Influence of human AFP/compound complex and compound alone on humoral immune response, C57B1/6 male mice; assay type: in vivo; conditions: compound alone, 5th day
Method: (§1) The influence of complexes of AFP with one of the title compounds 1-4, 1a-4a, 5-20 as well as their basic components on humoral immune response was estimated by counting the quantity of antibody-forming cells (AFC) in the mice spleen.
0.15 ml of AFP/Compound 3 complex was administered intravenously to 6 mice males of C57B1/6 line (weight 18-22 g) in the dose of […] of AFP and 45.5 μg of compound 3 per capita. Simultaneously suspension of 5·10^7 sheep erythrocytes was injected intraperitoneally (0.2 ml per capita). In the group with compound 3 mice were injected intravenously by one in the dose of 45.5 μg. Animals of group with AFP received 9 μg of AFP. Mice of control group were injected intravenously with equal volume of saline. Complex AFP/Compound 3 effect on humoral immune response was analyzed by counting the quantity of AFC in the spleen according to Cunningham (per 10^6 spleen cells and per spleen).
(§2) 0.15 ml of AFP/Compound 2a complex (1:100) was administered intravenously to 6 mice males of C57B1/6 line (weight 18-22 g) in the dose of 9 μg of AFP and 45.5 μg of compound 2a per capita. Simultaneously, a suspension of 5·10^7 sheep erythrocytes was injected intraperitoneally (0.2 ml per capita). In the group with compound 2a mice were injected intravenously by one in the dose of 45.5 μg. Animals of group with AFP received 9 μg of AFP. Mice in the control group were injected intravenously with an equal volume of saline. The effect of the AFP/Compound 2a complex on humoral immune response was analyzed by counting the quantity of AFC in the spleen according to Cunningham (per 10^6 spleen cells and per spleen).
(§3) 0.15 ml of AFP/Compound 10 complex (1:200) was administered intravenously to 6 male mice of C57B1/6 line (weight 18-22 g) in the dose of 9 μg of AFP and 91 μg of compound 10 per capita. Simultaneously, a suspension of 5·10^7 sheep erythrocytes was injected intraperitoneally (0.2 ml per capita). In the group receiving compound 10 mice were injected intravenously by one in the dose of 91 μg. Animals in the group with AFP received 9 μg of AFP. Micein the control group were injected intravenously with an equal volume of saline. The effect of the AFP/Compound 10 complex on humoral immune response was analyzed by counting the quantity of AFC in the spleen according to Cunningham (per 10^6 spleen cells and per spleen).
as §3, with “AFP/Compound 14” for “AFP/Compound 10”, “compound 14” for “compound 10”, “group with” for “group receiving”, “Animals of” for “Animals in the”, “AFP. Mice in” for “AFP. Micein”

[2] = system: antibody-forming cells (AFC) in the spleen; assay: Influence of compound on humoral immune response to sheep erythrocytes, C57B1/6 female mice (AFC in spleen, hemagglutinins); assay type: in vivo; conditions: for Amount of antibody-forming cells per 10^6 spleen cells / Amount of antibody-forming cells per spleen / Effect on relative amount of AFC (per 10^6 spleen cells) / Effect on total AFC amount (per spleen): 5th day; for Amount of antibody-forming cells per 10^6 spleen cells / Amount of antibody-forming cells per spleen: M ± SEM; for Effect on relative amount of AFC (per 10^6 spleen cells) / Effect on total AFC amount (per spleen) / Effect on hemagglutinin titers: vs control; for Spleen index: with SRBC i.p.
[3] = system: antibody-forming cells (AFC) in the spleen; assay: Influence of rat AFP/compound complex and compound alone on humoral immune response, C57B1/6 male mice; assay type: in vivo; conditions: compound alone, 5th day
Method: as §1
0.15 ml of AFP/Compound 7 complex (1:200) was administered intravenously to 6 male mice of C57B1/6 line (weight 18-22 g) in the dose of 9 μg of AFP and 91 μg of compound 7 per capita. Simultaneously, a suspension of 5·10^7 sheep erythrocytes was injected intraperitoneally (0.2 ml per capita). In the group with compound 7 mice were injected intravenously by one in the dose of 91 μg. Animals of group with AFP received 9 μg of AFP. Mice of control group were injected intravenously with equal volume of saline. AFP/Compound 7 complex effect on humoral immune response was analyzed by counting the quantity of AFC in the spleen according to Cunningham (per 10^6 spleen cells and per spleen).
0.15 ml of AFP/Compound 15 complex (1:200) was administered intravenously to 6 mice males of C57B1/6 line (weight 18-22 g) in the dose of 9 μg of AFP and 91 μg of compound 15 per capita. Simultaneously, a suspension of 5·10^7 sheep erythrocytes was injected intraperitoneally (0.2 ml per capita). In the group receiving compound 15, the mice were injected intravenously by one in the dose of 91 μg. Animals in the AFP-group received 9 μg of AFP. Mice in the control group were injected intravenously with an equal volume of saline. The effect of the AFP/Compound 15 complex on humoral immune response was analyzed by counting the quantity of AFC in the spleen according to Cunningham (per 10^6 spleen cells and per spleen).
as §2, with “1” for “2a”, “complex” for “complex (1:100)”, “Complex AFP/Compound 1” for “The”, “effect” for “effect of the AFP/Compound 2a complex”

endothelial cells = conditions: cited from earlier work
human AFP = biological target: T1, human AFP (Homo sapiens, UniProt P02771); assay: AFP binding: competitive substitution of [3H]arachidonic acid from the protein's binding site
T1 construct: from tissue; host or cells: human cord blood
Method: To tubes containing […] AFP in 1 ml 0.1 M bicarbonate buffer and 0.7 pmol [^3H]arachidonic acid and increasing amounts (5-5000 pmol) of arachidonic acid or any one of the title compounds 1-4, 1a-4a, and 5-20 were added. The tubes were incubated for 2 hr at room temperature. To separate protein-bound and free fractions of [^3H] arachidonic acid, tubes were incubated at 4° C. for 15 min with dextran covered activated carbon (0.5% suspension). The carbon was sedimented by centrifugation at 3000×g, aliquotes were added to 10 ml scintillating mixture and the vials were measured in a beta-counter.
The binding parameters of arachidonic acid and the compounds (1-4, 1a-4a, 5-16) the number of binding sites per protein molecule were calculated according to Scatchard (Scatchard O., Ann.N.Y.Acad.Sci. 51., p 660-664, 1949), and Blondeau (Blondeau J.-P., et al., Steroids, V. 32, N 5, P. 563-575, 1978).

T1 sequence (P02771 19-609): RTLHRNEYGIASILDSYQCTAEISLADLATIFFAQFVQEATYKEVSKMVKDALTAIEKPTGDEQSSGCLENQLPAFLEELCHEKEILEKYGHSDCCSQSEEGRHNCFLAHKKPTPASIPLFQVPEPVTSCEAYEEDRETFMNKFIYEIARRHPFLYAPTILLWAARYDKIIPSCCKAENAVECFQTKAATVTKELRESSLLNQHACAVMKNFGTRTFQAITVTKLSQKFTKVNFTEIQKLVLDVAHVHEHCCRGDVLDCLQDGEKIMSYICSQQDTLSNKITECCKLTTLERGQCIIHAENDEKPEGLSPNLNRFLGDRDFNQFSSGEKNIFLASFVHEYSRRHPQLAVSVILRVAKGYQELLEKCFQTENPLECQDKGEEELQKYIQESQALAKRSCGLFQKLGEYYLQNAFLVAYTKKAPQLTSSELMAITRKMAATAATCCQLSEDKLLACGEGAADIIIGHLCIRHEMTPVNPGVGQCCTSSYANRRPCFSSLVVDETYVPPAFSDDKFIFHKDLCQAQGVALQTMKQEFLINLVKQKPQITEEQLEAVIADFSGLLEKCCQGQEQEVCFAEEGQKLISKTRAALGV

Structure (SMILES) | Amount of antibody-forming cells per 10^6 spleen cells ([2]; 45.5 μg/mouse, i.v.) | Amount of antibody-forming cells per spleen ([2]; 45.5 μg/mouse, i.v.) | Effect on relative amount of AFC (per 10^6 spleen cells) ([2]; 45.5 μg/mouse, i.v.) | Effect on total AFC amount (per spleen) ([2]; 45.5 μg/mouse, i.v.) [p > 0.05%] | Effect on hemagglutinin titers ([2]; 45.5 μg/mouse, i.v.) | Spleen index ([2]; 45.5 μg/mouse, i.v.) | Amount of antibody-forming cells per 10^6 spleen cells ([2]; 91 μg/mouse, i.v.) | Amount of antibody-forming cells per spleen ([2]; 91 μg/mouse, i.v.) | Effect on hemagglutinin titers ([2]; 91 μg/mouse, i.v.) | Spleen index ([2]; 91 μg/mouse, i.v.) | Amount of antibody-forming cells per 10^6 spleen cells ([2]; 136.5 μg/mouse, i.v.) | Amount of antibody-forming cells per spleen ([2]; 136.5 μg/mouse, i.v.) | Spleen index ([2]; 136.5 μg/mouse, i.v.) | other results
CC1=C(/C=C/C(C)=C/C=C/C(C)=C\C(=O)N[C@@H](COP(=O)(O)O)C(=O)O)C(C)(C)CCC1 (stereo in doubt) [Compound 2a, N-(13-cis-Retinoyl)-O-phospho-L-serine] | 264.5±19.9 cells per 10^6 spleen cells | 34.0±2.6 × 10^3 | −12.8 p > 0.05% | −15.0 | −7.7 p > 0.05% | 6.4 ± 0.2 10^−3 | 585.6±51.6 cells per 10^6 spleen cells | 59.4±5.2 × 10^3 | −3.8 p > 0.05% | 6.5 ± 0.2 10^−3 | 639.8±54.6 cells per 10^6 spleen cells | 68.3±6.1 × 10^3 | 7.4 ± 0.4 10^−3 | relative amount of AFC ([1]; 45.5 μg/mouse i.v.): 264.5±19.9 cells per 10^6 spleen cells; total AFC amount ([1]; 45.5 μg/mouse i.v.): 34.0±2.6 × 10^3; Immunogenic activity ([2]; 45.5 μg/mouse): no immunogenic activity; immunostimulating effect in vivo in micelle form ([2]; 91 μg/mouse): display immunostimulating effect in vivo; Effect on hemagglutinin titers ([2]; 136.5 μg/mouse, i.v.): +5.1 p > 0.05%; immunostimulating action ([2]; 91 and 136.5 μg/mouse): marked immunostimulating action
CC1=C(/C=C/C(C)=C/C=C/C(C)=C/C(=O)NCCOP(=O)(O)O)C(C)(C)CCC1 [Compound 1, N-(all-trans-Retinoyl)-O-phospho-2-aminoethanol] |  |  |  |  |  |  |  |  |  |  |  |  |  | relative amount of AFC ([3]; 45.5 μg/mouse i.v.): 413.1±31.5 cells per 10^6 spleen cells; total AFC amount ([3]; 45.5 μg/mouse i.v.): 38.4±3.7 × 10^3
CCCCC/C=C\C/C=C\C/C=C\C/C=C\CCCC(=O)N[C@H](C(=O)O)[C@@H](C)OP(=O)(O)O [Compound 7, N-(cis-5,8,11,14-eicosatetraenoyl)-O-phospho-L-threonine] |  |  |  |  |  |  |  |  |  |  |  |  |  | relative amount of AFC ([3]; 91 μg/mouse i.v.): 574.9±39.6 cells per 10^6 spleen cells; total AFC amount ([3]; 91 μg/mouse i.v.): 60.4±5.4 × 10^3
CC/C=C\C/C=C\C/C=C\C/C=C\C/C=C\C/C=C\CCC(=O)N[C@@H](COP(=O)(O)O)C(=O)O [Compound 10, N-(cis-4,7,10,13,16,19-docosahexaenoyl)-O-phospho-L-serine] | 304.9±46.6 cells per 10^6 spleen cells | 30.2±5.7 × 10^3 | +11.6 p > 0.05% | −3.5 | +11.4 p > 005% | 6.9 ± 0.2 10^−3 | 326.2±65.4 cells per 10^6 spleen cells | 34.7±8.5 × 10^3 | +11.4 p > 005% | 6.6 ± 0.4 10^−3 | 651.6±48.2 cells per 10^6 spleen cells | 81.1±5.8 × 10^3 | 6.7 ± 0.2 10^−3 | relative amount of AFC ([1]; 91 μg/mouse i.v.): 326.2±65.4 cells per 10^6 spleen cells; total AFC amount ([1]; 91 μg/mouse i.v.): 34.7±8.5 × 10^3; Effect on relative amount of AFC (per 10^6 spleen cells) ([2]; 91 μg/mouse, i.v.): +19.4 p > 0.05%; Effect on total AFC amount (per spleen) ([2]; 91 μg/mouse, i.v.): +10.9 p > 0.05%; Amount of hemagglutinins ([2]; 136.5 μg/mouse, i.v., serum): 8.5±0.4 Log2 T; Immunogenic activity ([2]; 45.5 and 91 μg/mouse): no immunogenic activity
CC/C=C\C/C=C\C/C=C\C/C=C\C/C=C\CCCC(=O)N[C@@H](COP(=O)(O)O)C(=O)O [Compound 14, N-(cis-5,8,11,14,17-eicosapentaenoyl)-O-phospho-L-serine] | 554.6±52.0 cells per 10^6 spleen cells | 70.8±10.8 × 10^3 | −10.9 p > 0.05% | −1.5 | −9,7 p > 0.05% | 6.5 ± 0.2 10^−3 | 645.8±64.4 cells per 10^6 spleen cells | 80.8±12.7 × 10^3 | −2,8 p > 0.05% | 6.2 ± 0.2 10^−3 | 946.1±41.9 cells per 10^6 spleen cells | 108.6±10.8 × 10^3 | 6.5 ± 0.3 10^−3 | relative amount of AFC ([1]; 91 μg/mouse i.v.): 645.8±64.4 cells per 10^6 spleen cells; total AFC amount ([1]; 91 μg/mouse i.v.): 80.8±12.7 × 10^3; Effect on relative amount of AFC (per 10^6 spleen cells) ([2]; 91 μg/mouse, i.v.): +3.8 p > 0.05%; Effect on total AFC amount (per spleen) ([2]; 91 μg/mouse, i.v.): +12.4 p > 0.05%; immunostimulating action ([2]; 136.5 μg/mouse): marked immunostimulating action; Effect on hemagglutinin titers ([2]; 136.5 μg/mouse, i.v.): 0%; Immunogenic activity ([2]; 45.5 and 91 μg/mouse): no immunogenic activity
CC/C=C\C/C=C\C/C=C\C/C=C\C/C=C\CCCC(=O)N[C@H](C(=O)O)[C@@H](C)OP(=O)(O)O [Compound 15, N-(cis-5,8,11,14,17-eicosapentaenoyl)-O-phospho-L-threonine] |  |  |  |  |  |  |  |  |  |  |  |  |  | relative amount of AFC ([3]; 91 μg/mouse i.v.): 594.7±41.4 cells per 10^6 spleen cells; total AFC amount ([3]; 91 μg/mouse i.v.): 70.8±8.2 × 10^3
CCCCCCCC/C=C\CCCCCCCCCCCC(N)=O [Erucamide, 13-docosenamide] |  |  |  |  |  |  |  |  |  |  |  |  |  | inflammatory effects (endothelial cells): does not promote proliferation of endothelial cells or induce inflammatory effects; proliferation of endothelial cells (endothelial cells): does not promote proliferation of endothelial cells
CCCCC/C=C\C/C=C\C/C=C\C/C=C\CCCC(=O)O [arachidonic acid] |  |  |  |  |  |  |  |  |  |  |  |  |  | Kd (human AFP): 16.7 nM; n (number of binding sites per protein molecule) (human AFP; three independent determinations, Scatchard): > 1.2

— patent US6403554B2, “Polyunsaturated fatty acid derivatives and their use” (Ardenia Investments Ltd., priority 1998, dated 2002)
